# Data reported in patent US20080200505A1, “Piperidines for the Treatment of Chemokine Mediated Diseases” (ASTRAZENECA AB, priority 2005, published 2008).
# Biological target: T1, human H1 receptor (Homo sapiens, UniProt P35367)
# T1 construct: purchased Euroscreen SA, Brussels, Belgium ES-390-M; host or cells: CHO-K1
# Assay: Histamine H1 receptor binding, competition displacement of [3H]-pyrilamine
# Details: displacement of 1 nM [3H]-pyrilamine; membranes from recombinant CHO-K1 cells expressing the human H1 receptor; 1 hour at room temperature; read-out: H1 pKi (converted)
# Protocol: Histamine H1 receptor binding activity of compounds of the invention was assessed by competition displacement of 1 nM [3H]-pyrilamine (Amersham, Bucks, Product code TRK 608, specific activity 30 Ci/mmol) to 2 μg membranes prepared from recombinant CHO-K1 cells expressing the human H1 receptor (Euroscreen SA, Brussels, Belgium, product code ES-390-M) in assay buffer (50 mM Tris pH 7.4 containing 2 mM MgCl2, 250 mM sucrose and 100 mM NaCl) for 1 hour at room temperature.
# The following compounds of the invention gave inhibition of [3H] pyrilimine binding: […]
# T1 sequence (P35367 whole entry): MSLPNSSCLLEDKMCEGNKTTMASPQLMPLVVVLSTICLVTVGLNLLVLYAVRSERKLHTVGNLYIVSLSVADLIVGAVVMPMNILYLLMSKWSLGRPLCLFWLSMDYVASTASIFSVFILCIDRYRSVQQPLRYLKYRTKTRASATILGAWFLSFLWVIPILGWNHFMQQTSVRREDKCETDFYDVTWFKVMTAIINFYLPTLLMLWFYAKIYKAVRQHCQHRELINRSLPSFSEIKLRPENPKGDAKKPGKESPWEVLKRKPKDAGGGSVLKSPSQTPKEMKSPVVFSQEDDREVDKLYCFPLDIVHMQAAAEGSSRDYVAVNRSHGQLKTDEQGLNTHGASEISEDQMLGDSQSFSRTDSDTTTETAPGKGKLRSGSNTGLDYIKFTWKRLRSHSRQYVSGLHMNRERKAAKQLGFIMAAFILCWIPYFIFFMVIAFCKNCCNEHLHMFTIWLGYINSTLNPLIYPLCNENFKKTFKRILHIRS
row,Ki [nM],Compound
1,126,"O=C(O)[C@H]1C2CCC(C2)[C@H]1N1CCC(CN2CCC(Oc3ccc(Cl)c(Cl)c3)CC2)CC1 (mixture of isomers) [Example 3A, (2S,3R) and (2R,3S)-3-(4-{[4-(3,4-dichlorophenoxy)piperidin-1-yl]methyl}piperidin-1-yl)bicyclo[2.2.1]heptane-2-carboxylic acid]"
2,200,"O=C(O)[C@@H]1CCCC[C@H]1N1CCC(CN2CCC(Oc3ccc(Cl)c(Cl)c3)CC2)CC1 (racemic) [Example 1A, (1R,2R) and (1S,2S)-2-(4-{[4-(3,4-dichlorophenoxy)piperidin-1-yl]methyl}piperidin-1-yl)cyclohexanecarboxylic acid]"
3,316,"O=C(O)C1CCCC1N1CCC(CN2CCC(Oc3ccc(Cl)c(Cl)c3)CC2)CC1 [Example 4A, (1S,2R) and (1R,2S)-2-(4-{[4-(3,4-dichlorophenoxy)piperidin-1-yl]methyl}piperidin-1-yl)cyclopentanecarboxylate]"
